In brackets after ≈: the same amount, converted by molar mass.
Legend:
[1] = system: K562/ADR (K562adr, drug-resistant chronic myeloid leukemia) cells; test: MTT cell growth inhibition, leukemia cells; assay type: cell-based; details: Homo sapiens, K562/ADR, 72 h, MTT; for IC50: read-out: IC50; for IC90: read-out: IC90
Excerpt: (§1) Leukemia cell lines: leukemia cell lines: K562adr (drug-resistant, chronic myeloid leukemia, CML), NB4 (acute promyelocytic leukemia, AML), Kasumi-1 (acute myeloid leukemia M2 type, AML-M2), Jurkat (acute lymphoblastic leukemia, ALL), all of which were donated by Cancer Research Institute of Zhejiang University, China; and H9 (acute lymphoblastic leukemia, ALL), which was purchased from China Center for Type Culture Collection.
(§2) Reagents: The standard sample of fangchinoline (FAN) was purchased from Ci Yuan Biotechnology Co., Ltd., Shaanxi, China; and the 7-substituted fangchinoline derivatives according to the present invention.
(§3) 6000 well-growing leukemia cells were obtained and inoculated into wells of a 96-well cell culture plate. The culture medium was a RPMI-1640 cell culture medium containing 10% fetal bovine serum. After adding the 7-substituted fangchinoline derivatives of different concentrations the next day and mixing uniformly, the plate was placed in a carbon dioxide cell incubator (5% CO2) at 37° C. and incubating for 72 hours. Then the viable cell concentration was determined by the MTT method.

[2] = system: NB4 (acute promyelocytic leukemia) cells; test: MTT cell growth inhibition, leukemia cells; assay type: cell-based; details: Homo sapiens, NB4, 72 h, MTT; for IC50: read-out: IC50; for IC90: read-out: IC90
Excerpt: as §1, §2, §3

[3] = system: H9 (acute lymphoblastic leukemia) cells; test: MTT cell growth inhibition, leukemia cells; assay type: cell-based, human; details: Homo sapiens, H9, 72 h, MTT; for IC50: read-out: IC50; for IC90: read-out: IC90
Excerpt: as §1, §2, §3

[4] = system: Jurkat (acute lymphoblastic leukemia) cells; test: MTT cell growth inhibition, leukemia cells; assay type: cell-based, human; details: Homo sapiens, Jurkat, 72 h, MTT; for IC50: read-out: IC50; for IC90: read-out: IC90
Excerpt: as §1, §2, §3

[5] = system: Kasumi-1 (acute myeloid leukemia M2 type) cells; test: MTT cell growth inhibition, leukemia cells; assay type: cell-based, human; details: Homo sapiens, Kasumi-1, 72 h, MTT; for IC50: read-out: IC50; for IC90: read-out: IC90
Excerpt: as §1, §2, §3

[6] = system: RPMI 8226 (multiple myeloma) cells; test: MTT cell growth inhibition, multiple myeloma cells; assay type: cell-based, human; details: Homo sapiens, RPMI 8226, 72 h, MTT; for IC50: read-out: IC50; for IC90: read-out: IC90
Method: Myeloma cell lines: RPMI8226 (multiple myeloma), purchased from Fuxiang Bio-tech Co. Ltd., Shanghai, China.
as §3, with “well-growing” for “well-growing leukemia”, “incubated” for “incubating”

[7] = system: CNE (nasopharyngeal carcinoma) cells; test: MTT cell growth inhibition, solid tumor cells; assay type: cell-based, human; details: Homo sapiens, CNE, 72 h, MTT; for IC50: read-out: IC50; for IC90: read-out: IC90
Excerpt: (§4) Hep-2 (laryngeal carcinoma), A549 (human lung cancer), CaES-17 (esophageal cancer cell), PC-3 (prostate cancer), CNE (nasopharyngeal carcinoma cell) and SK-OV-3 (ovarian cancer cell), all of which were purchased from China Center For Type Culture Collection; RKO (human colon adenocarcinoma cell), MGC-803 (human gastric cancer cell), MG-63 (osteosarcoma), and U87-MG (malignant glioma cell), all of which were purchased from Fuxiang Bio-tech Co. Ltd., Shanghai, China; PANC-1 (pancreatic cancer), Becap37 (human breast cancer cell), Hela (human cervical cancer cell) and Hep G2 (human liver cancer cell), all of which were donated by Cancer Research Institute of Zhejiang University, China.
as §3, with “human solid tumor” for “leukemia”, “DMEM High Glucose” for “a RPMI-1640”, “serum. The plate was placed in a carbon dioxide cell incubator (5% CO2) at 37° C. and incubated for 24 hours.” for “serum.”, “added with” for “adding the”, “concentration” for “concentrations the next day”, “incubated” for “incubating”

[8] = system: CaEs-17 (esophageal cancer) cells; test: MTT cell growth inhibition, solid tumor cells; assay type: cell-based, human; details: Homo sapiens, CaEs17, CaEs-17, 72 h, MTT; for IC50: read-out: IC50; for IC90: read-out: IC90
Excerpt: as §4
as §3, with “human solid tumor” for “leukemia”, “DMEM High Glucose” for “a RPMI-1640”, “serum. The plate was placed in a carbon dioxide cell incubator (5% CO2) at 37° C. and incubated for 24 hours.” for “serum.”, “added with” for “adding the”, “concentration” for “concentrations the next day”, “incubated” for “incubating”

[9] = system: PANC-1 (pancreatic cancer) cells; test: MTT cell growth inhibition, solid tumor cells; assay type: cell-based, human; details: Homo sapiens, PANC-1, 72 h, MTT; for IC50: read-out: IC50; for IC90: read-out: IC90
Excerpt: as §4
as §3, with “human solid tumor” for “leukemia”, “DMEM High Glucose” for “a RPMI-1640”, “serum. The plate was placed in a carbon dioxide cell incubator (5% CO2) at 37° C. and incubated for 24 hours.” for “serum.”, “added with” for “adding the”, “concentration” for “concentrations the next day”, “incubated” for “incubating”

[10] = system: PC-3 (prostate cancer) cells; test: MTT cell growth inhibition, solid tumor cells; assay type: cell-based, human; details: Homo sapiens, PC-3, 72 h, MTT; for IC50: read-out: IC50; for IC90: read-out: IC90
Excerpt: as §4
as §3, with “human solid tumor” for “leukemia”, “DMEM High Glucose” for “a RPMI-1640”, “serum. The plate was placed in a carbon dioxide cell incubator (5% CO2) at 37° C. and incubated for 24 hours.” for “serum.”, “added with” for “adding the”, “concentration” for “concentrations the next day”, “incubated” for “incubating”

[11] = system: SK-OV-3 (ovarian cancer) cells; test: MTT cell growth inhibition, solid tumor cells; assay type: cell-based, human; details: Homo sapiens, SK-OV-3, 72 h, MTT; for IC50: read-out: IC50; for IC90: read-out: IC90
Excerpt: as §4
as §3, with “human solid tumor” for “leukemia”, “DMEM High Glucose” for “a RPMI-1640”, “serum. The plate was placed in a carbon dioxide cell incubator (5% CO2) at 37° C. and incubated for 24 hours.” for “serum.”, “added with” for “adding the”, “concentration” for “concentrations the next day”, “incubated” for “incubating”

[12] = system: Becap-37 (human breast cancer) cells; test: MTT cell growth inhibition, solid tumor cells; assay type: cell-based; details: Homo sapiens, Becap-37, 72 h, MTT; for IC50: read-out: IC50; for IC90: read-out: IC90
Excerpt: as §4
as §3, with “human solid tumor” for “leukemia”, “DMEM High Glucose” for “a RPMI-1640”, “serum. The plate was placed in a carbon dioxide cell incubator (5% CO2) at 37° C. and incubated for 24 hours.” for “serum.”, “added with” for “adding the”, “concentration” for “concentrations the next day”, “incubated” for “incubating”

[13] = system: Hela (human cervical cancer) cells; test: MTT cell growth inhibition, solid tumor cells; assay type: cell-based; details: Homo sapiens, Hela, 72 h, MTT; for IC50: read-out: IC50; for IC90: read-out: IC90
Excerpt: as §4
as §3, with “human solid tumor” for “leukemia”, “DMEM High Glucose” for “a RPMI-1640”, “serum. The plate was placed in a carbon dioxide cell incubator (5% CO2) at 37° C. and incubated for 24 hours.” for “serum.”, “added with” for “adding the”, “concentration” for “concentrations the next day”, “incubated” for “incubating”

[14] = system: Hep G2 (human liver cancer) cells; test: MTT cell growth inhibition, solid tumor cells; assay type: cell-based; details: Homo sapiens, HepG2, Hep G2, 72 h, MTT; for IC50: read-out: IC50; for IC90: read-out: IC90
Excerpt: as §4
as §3, with “human solid tumor” for “leukemia”, “DMEM High Glucose” for “a RPMI-1640”, “serum. The plate was placed in a carbon dioxide cell incubator (5% CO2) at 37° C. and incubated for 24 hours.” for “serum.”, “added with” for “adding the”, “concentration” for “concentrations the next day”, “incubated” for “incubating”

[15] = system: MG-63 (osteosarcoma) cells; test: MTT cell growth inhibition, solid tumor cells; assay type: cell-based; details: Homo sapiens, MG-63, 72 h, MTT; for IC50: read-out: IC50; for IC90: read-out: IC90
Excerpt: as §4
as §3, with “human solid tumor” for “leukemia”, “DMEM High Glucose” for “a RPMI-1640”, “serum. The plate was placed in a carbon dioxide cell incubator (5% CO2) at 37° C. and incubated for 24 hours.” for “serum.”, “added with” for “adding the”, “concentration” for “concentrations the next day”, “incubated” for “incubating”

[16] = system: MGC-803 (human gastric cancer) cells; test: MTT cell growth inhibition, solid tumor cells; assay type: cell-based; details: MGC-803, 72 h, MTT; for IC50: read-out: IC50; for IC90: read-out: IC90
Excerpt: as §4
as §3, with “human solid tumor” for “leukemia”, “DMEM High Glucose” for “a RPMI-1640”, “serum. The plate was placed in a carbon dioxide cell incubator (5% CO2) at 37° C. and incubated for 24 hours.” for “serum.”, “added with” for “adding the”, “concentration” for “concentrations the next day”, “incubated” for “incubating”

[17] = system: RKO (human colon adenocarcinoma) cells; test: MTT cell growth inhibition, solid tumor cells; assay type: cell-based; details: Homo sapiens, RKO, 72 h, MTT; for IC50: read-out: IC50; for IC90: read-out: IC90
Excerpt: as §4
as §3, with “human solid tumor” for “leukemia”, “DMEM High Glucose” for “a RPMI-1640”, “serum. The plate was placed in a carbon dioxide cell incubator (5% CO2) at 37° C. and incubated for 24 hours.” for “serum.”, “added with” for “adding the”, “concentration” for “concentrations the next day”, “incubated” for “incubating”

tumor = test: Antitumor activity compared with fangchinoline, overall statement; assay type: cell-based; details: tumor type not specified

Row | IC50 [1] [µg/mL] | IC90 [1] [µg/mL] | IC50 [2] [µg/mL] | IC90 [2] [µg/mL] | IC50 [3] [µg/mL] | IC90 [3] [µg/mL] | IC50 [4] [µg/mL] | IC90 [4] [µg/mL] | IC50 [5] [µg/mL] | IC90 [5] [µg/mL] | IC50 [6] [µg/mL] | IC90 [6] [µg/mL] | IC50 [7] [µg/mL] | IC90 [7] [µg/mL] | IC50 [8] [µg/mL] | IC90 [8] [µg/mL] | IC50 [9] [µg/mL] | IC90 [9] [µg/mL] | IC50 [10] [µg/mL] | IC90 [10] [µg/mL] | Structure (SMILES) | further results
1 | 0.28 (≈ 0.422 µM) | 2.35 (≈ 3.55 µM) | 0.48 (≈ 0.724 µM) | 2.48 (≈ 3.74 µM) | 2.01 (≈ 3.03 µM) | 4.28 (≈ 6.46 µM) | 0.75 (≈ 1.13 µM) | 1.88 (≈ 2.84 µM) | 0.97 (≈ 1.46 µM) | 4.01 (≈ 6.05 µM) | 0.13 (≈ 0.196 µM) | 0.5 (≈ 0.754 µM) | 2.7 (≈ 4.07 µM) | 6 (≈ 9.05 µM) | 1.79 (≈ 2.7 µM) | 6.87 (≈ 10.4 µM) | 2.87 (≈ 4.33 µM) | 8.31 (≈ 12.5 µM) | 3.07 (≈ 4.63 µM) | 5.91 (≈ 8.92 µM) | COc1ccc2cc1Oc1ccc(cc1)C[C@H]1c3cc(c(OC)cc3CCN1C)Oc1c(OCC3CC3)c(OC)cc3c1[C@H](C2)N(C)CC3 [BS-FC-208] | IC50 [11]: 3.77 µg/mL (≈ 5.69 µM); IC90 [11]: 7.85 µg/mL (≈ 11.8 µM); IC50 [12]: 2.35 µg/mL (≈ 3.55 µM); IC90 [12]: 5.55 µg/mL (≈ 8.37 µM); IC50 [13]: 1.74 µg/mL (≈ 2.63 µM); IC90 [13]: 4 µg/mL (≈ 6.03 µM); IC50 [14]: 1.94 µg/mL (≈ 2.93 µM); IC90 [14]: 5.95 µg/mL (≈ 8.98 µM); IC50 [15]: 1.6 µg/mL (≈ 2.41 µM); IC90 [15]: 2.5 µg/mL (≈ 3.77 µM); IC50 [16]: 1.49 µg/mL (≈ 2.25 µM); IC90 [16]: 5.98 µg/mL (≈ 9.02 µM); IC50 [17]: 1.64 µg/mL (≈ 2.47 µM); IC90 [17]: 4.64 µg/mL (≈ 7 µM); antitumor activity compared with that of fangchinoline (tumor): significantly superior
2 | 0.38 (≈ 0.586 µM) | 1.72 (≈ 2.65 µM) | 0.66 (≈ 1.02 µM) | 2.32 (≈ 3.58 µM) | 2.2 (≈ 3.39 µM) | 4 (≈ 6.17 µM) | 0.64 (≈ 0.986 µM) | 3.29 (≈ 5.07 µM) | 0.93 (≈ 1.43 µM) | 3.66 (≈ 5.64 µM) | 0.12 (≈ 0.185 µM) | 0.5 (≈ 0.771 µM) | 2.7 (≈ 4.16 µM) | 5.6 (≈ 8.63 µM) | 1.68 (≈ 2.59 µM) | 9.16 (≈ 14.1 µM) | 3.46 (≈ 5.33 µM) | 10.4 (≈ 16 µM) | 3.24 (≈ 4.99 µM) | 7.37 (≈ 11.4 µM) | C=CCOc1c(OC)cc2c3c1Oc1cc4c(cc1OC)CCN(C)[C@H]4Cc1ccc(cc1)Oc1cc(ccc1OC)C[C@@H]3N(C)CC2 [BS-FC-213] | IC50 [11]: 5 µg/mL (≈ 7.71 µM); IC90 [11]: 11.8 µg/mL (≈ 18.2 µM); IC50 [12]: 2.54 µg/mL (≈ 3.91 µM); IC90 [12]: 5.29 µg/mL (≈ 8.15 µM); IC50 [13]: 1.68 µg/mL (≈ 2.59 µM); IC90 [13]: 3.89 µg/mL (≈ 6 µM); IC50 [14]: 2.12 µg/mL (≈ 3.27 µM); IC90 [14]: 5.92 µg/mL (≈ 9.12 µM); IC50 [15]: 2.4 µg/mL (≈ 3.7 µM); IC90 [15]: 3.8 µg/mL (≈ 5.86 µM); IC50 [16]: 1.49 µg/mL (≈ 2.3 µM); IC90 [16]: 6.02 µg/mL (≈ 9.28 µM); IC50 [17]: 1.58 µg/mL (≈ 2.44 µM); IC90 [17]: 3.46 µg/mL (≈ 5.33 µM); antitumor activity compared with that of fangchinoline (tumor): significantly superior
